Results as given in US20140363871A1, “PROCESS FOR OBTAINING COPPER NANOPARTICLES FROM A FUNGUS SELECTED BETWEEN HYPOCREA LIXII AND TRICHODERMA KONINGIOPSIS AND USE OF FUNGI SELECTED BETWEEN HYPOCREA LIXII AND TRICHODERMA KONINGIOPSIS IN BIOREMEDIATION OF WASTEWATER AND PRODUCTION OF COPPER NANOPARTICLES” (VALE S.A., priority 2013, published 2014).

Experiments:
T. koningiopsis = experiment: Minimum inhibitory concentration in agar medium (spot plate method); assay type: cell-based, Trichoderma koningiopsis; details: T. koningiopsis on SDA plates with copper 50-2000 mg L^−1, 25° C., at least 5 days
Description: (§1) Copper tolerance of the isolated fungus was determined as the minimum inhibitory concentration (MIC) by the spot plate method [Ahmad I, Ansari M I, Aqil F (2006) Biosorption of Ni, Cr and Cd by metal tolerante Aspergillus niger and Penicillium sp using single and multi-metal solution. Indian J Exp Biol 44: 73-76]. SDA plates containing different concentrations of copper (50 to 2000 mg L^−1) were prepared and inocula of the tested fungus were spotted onto the metal and control plates (plate without metal). The plates were incubated at 25° C. for at least 5 days. The MIC is defined as the lowest concentration of metal that inhibits visible growth of the isolate.

H. lixii = experiment: as above; assay type: cell-based, Hypocrea lixii; details: H. lixii on SDA plates with copper 50-2000 mg L^−1, 25° C., at least 5 days
Description: as §1

O.O.[Cl][Cu][Cl] [copper, CuCl2.2H2O]
minimum inhibitory concentration (MIC), tolerance to copper (T. koningiopsis): 1057 µg/mL
minimum inhibitory concentration (MIC), tolerance to copper (H. lixii): 528 µg/mL
